Reference: PubChem BioAssay AID252 (DTP/NCI, 2004)
Inconclusive results and toxic doses are left out.

Test system: BDF1 mice, intracerebral L1210 leukemia, survival T/C
Assay: NCI In Vivo Anticancer Drug Screen. Data for tumor model L1210 Leukemia (intracerebral) in B6D2F1 (BDF1) mice
Conditions: higher = longer survival
How it was run: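 Transplantable tumour-bearing mice, compound-treated vs vehicle controls; read-out survival, reported as T/C ratio.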

**Q.** With `CN(N=O)C(=O)N[C@@H](C=O)[C@@H](O)[C@H](O)[C@H](O)CO` as the compound, how does the T/C (endpoint: mean survival time, dose: 15.0 mg/kg/injection, schedule: Q01DX009 (ip), vehicle: saline) read?
**A.** 105 % of control

**Q.** What about the T/C (endpoint: mean survival time, dose: 22.0 mg/kg/injection, schedule: Q01DX009 (ip), vehicle: other) of the same compound?
**A.** 98 % of control

**Q.** And the T/C (endpoint: mean survival time, dose: 30.0 mg/kg/injection, schedule: Q01DX005 (ip), vehicle: saline)?
**A.** 105 % of control

**Q.** What about the T/C (endpoint: mean survival time, dose: 30.0 mg/kg/injection, schedule: Q01DX009 (ip), vehicle: saline) of the same compound?
**A.** 108 % of control

**Q.** What about the T/C (endpoint: mean survival time, dose: 33.0 mg/kg/injection, schedule: Q01DX009 (ip), vehicle: other) of the same compound?
**A.** 100 % of control

**Q.** And the T/C (endpoint: mean survival time, dose: 50.0 mg/kg/injection, schedule: Q01DX009 (ip), vehicle: other)?
**A.** 95 % of control

**Q.** What about the T/C (endpoint: mean survival time, dose: 60.0 mg/kg/injection, schedule: Q01DX005 (ip), vehicle: saline) of the same compound?
**A.** 101 % of control

**Q.** And the T/C (endpoint: mean survival time, dose: 60.0 mg/kg/injection, schedule: Q01DX009 (ip), vehicle: saline)?
**A.** 109 % of control

**Q.** And the T/C (endpoint: mean survival time, dose: 75.0 mg/kg/injection, schedule: Q01DX009 (ip), vehicle: other)?
**A.** 94 % of control

**Q.** What about the T/C (endpoint: mean survival time, dose: 113.0 mg/kg/injection, schedule: Q01DX009 (ip), vehicle: other) of the same compound?
**A.** 93 % of control

**Q.** And the T/C (endpoint: mean survival time, dose: 120.0 mg/kg/injection, schedule: Q01DX005 (ip), vehicle: saline)?
**A.** 107 % of control

**Q.** And the T/C (endpoint: mean survival time, dose: 120.0 mg/kg/injection, schedule: Q01DX009 (ip), vehicle: saline)?
**A.** 113 % of control

**Q.** What about the T/C (endpoint: mean survival time, dose: 240.0 mg/kg/injection, schedule: Q01DX005 (ip), vehicle: saline) of the same compound?
**A.** 105 % of control

**Q.** Which results are given for `Nc1nc(=S)c2ncn(C3OC(CO)C(O)C3O)c2[nH]1` (stereo not given)?
**A.** T/C (endpoint: mean survival time, dose: 0.66 mg/kg/injection, schedule: Q01DX015 (ip), vehicle: carboxymethylcellulose (CMC)): 105 % of control; T/C (endpoint: mean survival time, dose: 1.0 mg/kg/injection, schedule: Q01DX015 (ip), vehicle: carboxymethylcellulose (CMC)): 115 % of control; T/C (endpoint: mean survival time, dose: 1.5 mg/kg/injection, schedule: Q01DX015 (ip), vehicle: carboxymethylcellulose (CMC)): 121 % of control; T/C (endpoint: mean survival time, dose: 95.0 mg/kg/injection, schedule: Q01DX001 (ip), vehicle: carboxymethylcellulose (CMC)): 157 % of control; T/C (endpoint: mean survival time, dose: 144.0 mg/kg/injection, schedule: Q01DX001 (ip), vehicle: carboxymethylcellulose (CMC)): 171 % of control; T/C (endpoint: mean survival time, dose: 215.0 mg/kg/injection, schedule: Q01DX001 (ip), vehicle: carboxymethylcellulose (CMC)): 152 % of control

**Q.** With `CN(C)C(=O)c1ccc(NC(=O)N(CCCl)N=O)cc1` as the compound, how does the T/C (endpoint: mean survival time, dose: 8.0 mg/kg/injection, schedule: Q01DX001 (ip), vehicle: other) read?
**A.** 110 % of control

**Q.** And the T/C (endpoint: mean survival time, dose: 24.0 mg/kg/injection, schedule: Q01DX001 (ip), vehicle: other)?
**A.** 121 % of control

**Q.** How did the T/C (endpoint: mean survival time, dose: 0.6 mg/kg/injection, schedule: Q01DX009 (ip), vehicle: saline) turn out when `CN(Cc1cnc2nc(N)nc(N)c2n1)c1ccc(C(=O)N[C@@H](CCC(=O)O)C(=O)O)cc1` was run?
**A.** 158 % of control

**Q.** What about the T/C (endpoint: mean survival time, dose: 1.25 mg/kg/injection, schedule: Q01DX009 (ip), vehicle: other) of the same compound?
**A.** 150 % of control

**Q.** What about the T/C (endpoint: mean survival time, dose: 1.25 mg/kg/injection, schedule: Q01DX009 (ip), vehicle: saline) of the same compound?
**A.** 168 % of control

**Q.** What about the T/C (endpoint: mean survival time, dose: 2.5 mg/kg/injection, schedule: Q01DX009 (ip), vehicle: saline) of the same compound?
**A.** 112 % of control

**Q.** And the T/C (endpoint: mean survival time, dose: 3.0 mg/kg/injection, schedule: Q01DX009 (ip), vehicle: sodium bicarbonate)?
**A.** 108 % of control

**Q.** What about the T/C (endpoint: mean survival time, dose: 5.0 mg/kg/injection, schedule: Q01DX009 (ip), vehicle: saline) of the same compound?
**A.** 95 % of control

**Q.** And the T/C (endpoint: mean survival time, dose: 5.0 mg/kg/injection, schedule: Q01DX009 (ip), vehicle: sodium bicarbonate)?
**A.** 94 % of control

**Q.** What about the T/C (endpoint: mean survival time, dose: 8.0 mg/kg/injection, schedule: Q01DX001 (ip), vehicle: sodium bicarbonate) of the same compound?
**A.** 111 % of control

**Q.** What about the T/C (endpoint: mean survival time, dose: 14.0 mg/kg/injection, schedule: Q04DX003 (ip), vehicle: sodium bicarbonate) of the same compound?
**A.** 113 % of control

**Q.** And the T/C (endpoint: mean survival time, dose: 16.0 mg/kg/injection, schedule: Q01DX001 (ip), vehicle: sodium bicarbonate)?
**A.** 114 % of control

**Q.** And the T/C (endpoint: mean survival time, dose: 19.0 mg/kg/injection, schedule: Q01DX001 (ip), vehicle: water)?
**A.** 108 % of control

**Q.** And the T/C (endpoint: mean survival time, dose: 23.0 mg/kg/injection, schedule: Q04DX003 (ip), vehicle: sodium bicarbonate)?
**A.** 112 % of control

**Q.** What about the T/C (endpoint: mean survival time, dose: 29.0 mg/kg/injection, schedule: Q01DX001 (ip), vehicle: water) of the same compound?
**A.** 111 % of control

**Q.** And the T/C (endpoint: mean survival time, dose: 32.0 mg/kg/injection, schedule: Q01DX001 (ip), vehicle: sodium bicarbonate)?
**A.** 117 % of control

**Q.** And the T/C (endpoint: mean survival time, dose: 39.0 mg/kg/injection, schedule: Q04DX003 (ip), vehicle: sodium bicarbonate)?
**A.** 115 % of control

**Q.** And the T/C (endpoint: mean survival time, dose: 43.0 mg/kg/injection, schedule: Q01DX001 (ip), vehicle: water)?
**A.** 113 % of control

**Q.** And the T/C (endpoint: mean survival time, dose: 64.0 mg/kg/injection, schedule: Q01DX001 (ip), vehicle: sodium bicarbonate)?
**A.** 121 % of control

**Q.** What about the T/C (endpoint: mean survival time, dose: 65.0 mg/kg/injection, schedule: Q04DX003 (ip), vehicle: sodium bicarbonate) of the same compound?
**A.** 100 % of control

**Q.** And the T/C (endpoint: mean survival time, dose: 128.0 mg/kg/injection, schedule: Q01DX001 (ip), vehicle: sodium bicarbonate)?
**A.** 109 % of control

**Q.** What about the T/C (endpoint: median survival time, dose: 0.5 mg/kg/injection, schedule: Q01DX009 (ip), vehicle: sodium bicarbonate) of the same compound?
**A.** 102 % of control

**Q.** And the T/C (endpoint: median survival time, dose: 1.0 mg/kg/injection, schedule: Q01DX009 (ip), vehicle: sodium bicarbonate)?
**A.** 113 % of control

**Q.** With `O=NN(CCCl)C(=O)NC1CS(=O)(=O)CS(=O)(=O)C1` as the compound, how does the T/C (endpoint: mean survival time, dose: 11.0 mg/kg/injection, schedule: Q01DX001 (ip), vehicle: other) read?
**A.** 118 % of control

**Q.** What about the T/C (endpoint: mean survival time, dose: 17.0 mg/kg/injection, schedule: Q01DX001 (ip), vehicle: other) of the same compound?
**A.** 117 % of control

**Q.** And the T/C (endpoint: mean survival time, dose: 56.0 mg/kg/injection, schedule: Q01DX001 (ip), vehicle: other)?
**A.** 119 % of control
